Results taken from patent US20230416225A1, “DIAMINOPYRIMIDINE CARBOXAMIDE INHIBITORS OF HPK1” (MERCK SHARP & DOHME LLC, priority 2020, published 2023).
pIC50: −log10 of the molar value.

Molecular target: T1, Human HPK1, catalytic domain (Homo sapiens, UniProt Q92918)
T1 construct: purchased Carna
T1 sequence (Q92918 1-346): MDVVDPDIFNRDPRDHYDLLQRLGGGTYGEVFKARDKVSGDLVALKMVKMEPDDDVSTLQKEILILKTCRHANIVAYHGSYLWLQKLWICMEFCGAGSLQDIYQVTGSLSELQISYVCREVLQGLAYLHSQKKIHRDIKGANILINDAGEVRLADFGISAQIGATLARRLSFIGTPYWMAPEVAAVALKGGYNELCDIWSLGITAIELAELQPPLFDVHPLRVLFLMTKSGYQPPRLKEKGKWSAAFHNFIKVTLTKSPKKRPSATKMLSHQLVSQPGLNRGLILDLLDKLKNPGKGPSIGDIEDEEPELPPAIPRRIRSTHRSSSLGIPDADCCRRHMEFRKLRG
Experiment: HPK1-SLP76 TR-FRET assay
Format: biochemical
Settings: 75 pM HPK1, 10 uM ATP, 10 nM SLP76, 30 min compound pre-incubation

| pIC50 | Structure (SMILES) |
| --- | --- |
| 7.22 | COc1cc2c(cc1Nc1ncc(C(N)=O)c(N[C@H]3CC[C@@H](N(C)C)CC3)n1)CN(C)CC2 [Example 26-17, 4-{[cis-4-(dimethylamino)cyclohexyl]amino}-2-[(6-methoxy-2-methyl-1,2,3,4-tetrahydroisoquinolin-7-yl)amino]pyrimidine-5-carboxamide] |
| 7.92 | COc1cc2c(cc1Nc1ncc(C(N)=O)c(N[C@@H](C)C3CCCCC3)n1)CN(C)CC2 [Example 26-7, 4-{[(1S)-1-cyclohexylethyl]amino}-2-[(6-methoxy-2-methyl-1,2,3,4-tetrahydroisoquinolin-7-yl)amino]pyrimidine-5-carboxamide] |
| 7.61 | NC(=O)c1cnc(Nc2ccccc2)nc1Nc1cccc2c1CCNC2=O [Example 25-1, 4-[(1-oxo-1,2,3,4-tetrahydroisoquinolin-5-yl)amino]-2-(phenylamino)pyrimidine-5-carboxamide] |
| 6.06 | COc1cc(C(=O)N2CCN(C)CC2)ccc1Nc1ncc(C(N)=O)c(Nc2ccccc2C(F)(F)F)n1 [Example 11-1, 2-((2-methoxy-4-(4-methylpiperazine-1-carbonyl)phenyl)amino)-4-((2-(trifluoromethyl)phenyl)amino)pyrimidine-5-carboxamide] |
| 6.93 | COCCOCCOCC(=O)N1CCc2cc(OC)c(Nc3ncc(C(N)=O)c(Nc4ccccc4Br)n3)cc2C1 [Example 12-1, 4-[(2-bromophenyl)amino]-2-[(6-methoxy-2-{[2-(2-methoxyethoxy)ethoxy)accetyl}-1,2,3,4-tetrahydroisoquinolin-7-yl)amino]pyrimidine-5-carboxamide] |
| 8.97 | COc1cc2c(cc1Nc1ncc(C(N)=O)c(NC3CC[C@H]4NCCC[C@@H]34)n1)CN(C)CC2 (stereo partly drawn) [Example 26-10, 2-[(6-methoxy-2-methyl-1,2,3,4-tetrahydroisoquinolin-7-yl)amino]-4-{[(4aR,7aR)-octahydro-1H-cyclopenta[b]pyridin-5-yl]amino}pyrimidine-5-carboxamide] |
| 8.04 | COc1cc2c(cc1Nc1ncc(C(N)=O)c(Nc3ccnn3C)n1)CN(C)CC2 [Example 7-88, 2-((6-methoxy-2-methyl-1,2,3,4-tetrahydroisoquinolin-7-yl)amino)-4-((1-methyl-1H-pyrazol-5-yl)amino)pyrimidine-5-carboxamide] |
| 8.94 | CC(C)(C#N)c1cccc(Nc2ncc(C(N)=O)c(Nc3cccc4c3CCNC4=O)n2)c1 [Example 25-3, 2-{[3-(2-cyanopropan-2-yl)phenyl]amino}-4-[(1-oxo-1,2,3,4-tetrahydroisoquinolin-5-yl)amino]pyrimidine-5-carboxamide] |
| 8.60 | COc1cc2c(cc1Nc1ncc(C(N)=O)c(N[C@@H](C)c3cccc(F)c3F)n1)CN(C)CC2 [Example 26-19, 4-{[(1S)-1-(2,3-difluorophenyl)ethyl]amino}-2-[(6-methoxy-2-methyl-1,2,3,4-tetrahydroisoquinolin-7-yl)amino]pyrimidine-5-carboxamide] |
| 8.32 | CCn1cc(Cl)c(Nc2nc(Nc3cc4c(cc3OC)CCN(C)C4)ncc2C(N)=O)n1 [Example 7-87, 4-((4-chloro-1-ethyl-1H-pyrazol-3-yl)amino)-2-((6-methoxy-2-methyl-1,2,3,4-tetrahydroisoquinolin-7-yl)amino)pyrimidine-5-carboxamide] |
| 6.77 | Cc1ccc(C)c(Nc2ncc(C(N)=O)c(Nc3cccc4c3CCNC4=O)n2)c1 [Example 25-36, 2-[(2,5-dimethylphenyl)amino]-4-[(1-oxo-1,2,3,4-tetrahydroisoquinolin-5-yl)amino]pyrimidine-5-carboxamide] |
| 8.03 | COc1cc2c(cc1Nc1ncc(C(N)=O)c(Nc3ccccc3-c3cc(C)no3)n1)CN(C)CC2 [Example 7-85, 2-((6-methoxy-2-methyl-1,2,3,4-tetrahydroisoquinolin-7-yl)amino)-4-((2-(3-methylisoxazol-5-yl)phenyl)amino)pyrimidine-5-carboxamide] |
| 9.02 | COc1cc2c(cc1Nc1ncc(C(N)=O)c(N[C@@H]3COC[C@H]3SC)n1)CN(C)CC2 [Example 26-8, 2-[(6-methoxy-2-methyl-1,2,3,4-tetrahydroisoquinolin-7-yl)amino]-4-{[(3R,4S)-4-(methylsulfanyl)oxolan-3-yl]amino}pyrimidine-5-carboxamide] |

Second part, the molecule before the results:

| Structure (SMILES) | pIC50 |
| --- | --- |
| Cc1cccc(F)c1Nc1nc(Nc2cnn(C)c2)ncc1C(N)=O [Example 4-35, 4-[(2-fluoro-6-methylphenyl)amino]-2-[(1-methyl-1H-pyrazol-4-yl)amino]pyrimidine-5-carboxamide] | 6.80 |
| COc1cc2c(cc1Nc1ncc(C(N)=O)c(Nc3c(C)cccc3F)n1)CN(CC(C)(C)O)CC2 [Example 5-2] | 8.60 |
| NC(=O)c1cnc(Nc2cnn(CC3CC3)c2)nc1Nc1cccc2c1CCNC2=O [Example 7-43, 2-{[1-(cyclopropylmethyl)-1H-pyrazol-4-yl]amino}-4-[(1-oxo-1,2,3,4-tetrahydroisoquinolin-5-yl)amino]pyrimidine-5-carboxamide] | 8.37 |
| COc1cc2c(cc1Nc1ncc(C(N)=O)c(Nc3cccc4c3CCN(S(C)(=O)=O)C4)n1)CN(C)CC2 [Example 7-31, 2-[(6-methoxy-2-methyl-1,2,3,4-tetrahydroisoquinolin-7-yl)amino]-4-{[2-(methylsulfonyl)-1,2,3,4-tetrahydroisoquinolin-5-yl]amino}pyrimidine-5-carboxamide] | 9.82 |
| CC(N)c1cccc(Nc2nc(Nc3cc4c(cc3Cl)CCN(C)C4)ncc2C(N)=O)c1 (centres unmarked) [Example 2-6, 4-{[3-(1-aminoethyl)phenyl]-amino}-2-[(6-chloro-2-methyl-1,2,3,4-tetrahydroisoquinolin-7-yl)amino]pyrimidine-5-carboxamide] | 9.27 |
| CS(=O)(=O)c1ccc(Nc2ncc(C(N)=O)c(Nc3cccc4c3CCNC4=O)n2)cc1 [Example 7-48, 2-{[4-(methylsulfonyl)phenyl]amino}-4-[(1-oxo-1,2,3,4-tetrahydroisoquinolin-5-yl)amino]pyrimidine-5-carboxamide] | 8.89 |
| NC(=O)c1cnc(Nc2cnn(C3CCNCC3)c2)nc1Nc1cccc2c1CCNC2=O [Example 7-52, 4-[(1-oxo-1,2,3,4-tetrahydroisoquinolin-5-yl)amino]-2-{[1-(piperidin-4-yl)-1H-pyrazol-4-yl]amino}pyrimidine-5-carboxamide] | 9.26 |
| CS(=O)(=O)Cc1ccc(Nc2ncc(C(N)=O)c(Nc3cccc4c3CCNC4=O)n2)cc1 [Example 7-59, 2-({4-[(methylsulfonyl)methyl]phenyl}amino)-4-[(1-oxo-1,2,3,4-tetrahydroisoquinolin-5-yl)amino]pyrimidine-5-carboxamide] | 8.67 |
| COc1cc2c(cc1Nc1ncc(C(N)=O)c(Nc3cccc4c3CCN(CC(C)(C)O)C4)n1)CN(C)CC2 [Example 7-28, 4-{[2-(2-hydroxy-2-methylpropyl)-1,2,3,4-tetrahydroisoquinolin-5-yl]amino}-2-[(6-methoxy-2-methyl-1,2,3,4-tetrahydroisoquinolin-7-yl)amino]pyrimidine-5-carboxamide] | 9.29 |
| CS(=O)(=O)c1ccc(Nc2ncc(C(N)=O)c(Nc3cccc4c3CCNC4)n2)cc1 [Example 7-1, 2-{[4-(methylsulfonyl)phenyl]amino}-4-[(1,2,3,4-tetrahydroisoquinolin-5-yl)amino]pyrimidine-5-carboxamide] | 9.18 |
